Data: patent publication US12653191B2, “Active compound combinations” (Bayer Aktiengesellschaft, priority 2020, dated 2026)
Where two headings read alike, the source gives them in different places.

Key:
Fusarium culmorum = assay: in vitro-Test with fungal microorganisms, Method A (tables G1-G4); assay type: cell-based; details: alone
Description: (§1) Example: In Vitro-Test with Fungal Microorganisms
(§2) Wells of 96-well microtiter plates are filled with 10 μl of a preparation of test compound or compound combination in methanol+emulsifier alkylaryl-polyglycol-ether. Thereafter, the solvent is evaporated in a hood. At the next step, 100 μl of liquid potato dextrose medium is given into each well, that has been amended with an appropriate concentration of spores or mycelium suspension of the test fungus.
(§3) With the aid of a photometer, the extinction in all wells is measured at the wavelength of 620 nm.
(§4) The microtiter plates are incubated at 20° C. and 85% relative humidity. The inhibition of growth is determined again photometrically 3-5 days after the application. Efficacy is calculated in relation to the untreated control, 0% efficacy means fungal growth as high as in untreated control while 100% efficacy means no fungal growth is measured.
(§5) The data in tables A1 to A12, B1 to B14, C1 to C10, D1 to D8, E1 to E8, F1 to F11, G1 to G4, H1 to H4 and I1 to I5 were collected according to Method A. The data in tables A13 to A22, B15 to B18, C11 to C20, E9 to E16, F12 to F15, G5 to G15, H5 to H8, I6 to I11 and J1 to J11 were collected according to Method B.

[1] = system: Colletotrichum lindemuthianum; assay: in vitro-Test with fungal microorganisms, Method A (tables D1-D8); assay type: cell-based; details: Colletotrichum lindemuthianum, mixing partner alone, read-out: Efficacy %
Description: as §1, §2, §3, §4, §5

Alternaria alternate = assay: in vitro-Test with fungal microorganisms, Method A (tables A1-A12); assay type: cell-based, Alternaria alternata; details: Alternaria, applied alone, read-out: Efficacy %
Description: as §1, §2, §3, §4, §5

Diaporthe citri = assay: in vitro-Test with fungal microorganisms, Method A (tables F1-F11); assay type: cell-based; details: Diaporthe citri, applied alone, read-out: Efficacy
Description: as §1, §2, §3, §4, §5

Botrytis cinerea = assay: in vitro-Test with fungal microorganisms, Method A (tables B1-B14); assay type: cell-based; details: Botrytis cinerea
Description: as §1, §2, §3, §4, §5

Cordana musae = assay: in vitro-Test with fungal microorganisms, Method A (tables E1-E8); assay type: cell-based; details: Neocordana musae, mixing partner alone, read-out: Efficacy %
Description: as §1, §2, §3, §4, §5

**Q.** Which results are given for `CCN(C)C=Nc1cc(C)c(Oc2ccccc2F)cc1Cl` [(15.064), N′-[2-chloro-4-(2-fluorophenoxy)-5-methylphenyl]-N-ethyl-N-methylimidoformamide]?
**A.** inhibition of growth at 2 ppm (Fusarium culmorum; Fusarium culmorum, 2.0 ppm, read-out: Efficacy): 0%; inhibition of growth at 10 ppm (Fusarium culmorum; Fusarium culmorum, 10.0 ppm, read-out: Efficacy): 1%; inhibition of growth at 0.08 ppm ([1]; 0.08 ppm): 16%; inhibition of growth at 0.4 ppm ([1]; 0.4 ppm): 0%; inhibition of growth at 2 ppm ([1]; 2.0 ppm): 0%; inhibition of growth at 0.08 ppm (Alternaria alternate; 0.08 ppm): 2%; inhibition of growth at 0.4 ppm (Alternaria alternate; 0.4 ppm): 5%; inhibition of growth at 2 ppm (Alternaria alternate; 2.0 ppm): 12%; inhibition of growth at 10 ppm (Alternaria alternate; 10.0 ppm): 50%; inhibition of growth at 2 ppm (Diaporthe citri; 2.0 ppm): 0%; inhibition of growth at 10 ppm (Diaporthe citri; 10.0 ppm): 0%; inhibition of growth at 0.08 ppm (Botrytis cinerea; read-out: Efficacy): 5%; inhibition of growth at 0.4 ppm (Botrytis cinerea; 0.4 ppm, read-out: Efficacy): 21%; inhibition of growth at 2 ppm (Botrytis cinerea; read-out: Efficacy): 2%; inhibition of growth at 0.08 ppm (Botrytis cinerea; alone, read-out: Efficacy %): 9%; inhibition of growth at 2 ppm (Botrytis cinerea; alone, read-out: Efficacy %): 5%; inhibition of growth at 0.4 ppm (Cordana musae; 0.4 ppm): 0%; inhibition of growth at 2 ppm (Cordana musae; 2.0 ppm): 0%; inhibition of growth at 10 ppm (Cordana musae; 10.0 ppm): 27%

**Q.** What does the source list for `CCO[PH](=O)[O-].CCO[PH](=O)[O-].CCO[PH](=O)[O-].[Al+3]` [fosetylaluminium]?
**A.** Efficacy (Fusarium culmorum; 0.8 ppm): 7%; Efficacy (Fusarium culmorum; 4.0 ppm): 0%; Efficacy (Fusarium culmorum; 20.0 ppm): 5%; Efficacy (Fusarium culmorum; 100.0 ppm): 9%
